Data: patent publication EP2386565A2, “Compounds and methods to inhibit or augment an inflammatory response” (Cambridge Enterprise Ltd., priority 1999, dated 2000)
Positions of bridges follow the written chain, without caps; N, C: chain ends. Non-standard residues stand in square brackets, D forms with d. Residues, ends and D or L forms follow the SMILES beside them.

Experiments:
[1] = tested on: antigen specific antibody recall response; assay: Antigen (scFv) recall response, safety and serum levels after single i.v. dose; format: in vivo, Cynomolgus monkeys
Experimental: Cynomolgus monkeys were immunized with antigen that is a single chain Fv (scFv) protein. Each animal previously received 3 i.v. injections of the antigen and all developed high serum titers. Five animals were randomly divided into 2 groups. Two animals served as PBS treated controls and 3 were treated i.v. with 50 mg/kg CRD-Leu4Ile11Cys13 peptide 3(3-12)[MCP-1]. Thirty minutes following CRD-Leu4Ile11Cys13 peptide 3(3-12)[MCP-1] treatment all animals were challenged i.v. with 3.5 mg/kg antigen. In addition, animals were challenged intradermal with each of the following in a volume of 50 µl:PBS; 50 µg antigen; 5 µg antigen; 0.5 µg antigen; 500 ng MCP-1; or 50 ng LPS. Serum was collected at 10 minutes, 30 minutes, 60 minutes, 4 hours, and 24 hours. Animals were sacrificed 24 hours after CRD-Leu4Ile11Cys13peptide 3(3-12)[MCP-1] injection and complete necropsy performed and tissues fixed for histopathology. Fixed and frozen skin samples were harvested for histopathology and immunohistochemistry. Blood, spleen, and lymph node were harvested for assessment of cell function in migration assay, proliferation assay, and antigen specific antibody and cytokine recall. Blood was also analyzed pre- and post-CRD-Leu4Ile11Cys13 peptide 3(3-12)[MCP-1] injection for hematology parameters and serum chemistry. Serum levels were evaluated by an LC-MS method (limit of quantitation = 1 µg/ml) pre-treatment and then at 10 minutes, 30 minutes, 60 minutes, 4 hours and 20-24 hours after injection. Urinalysis was performed pre- and post-CRD-Leu4Ile11Cys13 peptide 3(3-12)[MCP-1] injection.

[2] = tested on: T cell-dependent and T cell-independent antibody response; assay: Antibody response after immunization with sheep red blood cells; set-up: species or system mice; settings: mouse, in vivo
trypsin = assay: Stability against enzymatic destruction; format: in vitro ADME; settings: 5 units trypsin for 2 hrs at 37°C
Description: For example, to prepare a peptide 3 derivative, peptide 3(3-12)[MCP-1] was modified according to Jameson et al. (Nature, 368, 744 (1994)), which yielded CRD-Cys13Leu4Ile11peptide 3(3-12)[MCP-1] (Figure 3).

D2s dopamine receptors = molecular target: T1, D2s dopamine receptors (Homo sapiens, UniProt P14416); assay: Competition of 3H-spiperone binding to membranes; settings: 100 µM highest concentration tested
T1 construct: purchased RBI/Sigma D-179; host or cells: membranes
T1 sequence (P14416 1-414 isoform P14416-2): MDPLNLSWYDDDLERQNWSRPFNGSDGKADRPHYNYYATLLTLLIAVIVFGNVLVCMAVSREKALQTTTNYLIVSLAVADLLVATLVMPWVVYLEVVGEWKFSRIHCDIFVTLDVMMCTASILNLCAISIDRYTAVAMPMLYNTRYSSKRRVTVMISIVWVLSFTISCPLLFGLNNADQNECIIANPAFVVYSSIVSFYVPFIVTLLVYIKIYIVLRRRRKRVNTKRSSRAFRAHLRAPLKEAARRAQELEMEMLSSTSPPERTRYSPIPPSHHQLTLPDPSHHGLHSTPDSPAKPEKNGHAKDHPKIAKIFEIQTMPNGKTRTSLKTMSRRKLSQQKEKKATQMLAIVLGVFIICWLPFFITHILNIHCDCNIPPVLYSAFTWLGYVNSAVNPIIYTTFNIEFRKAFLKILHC
Experimental: For dopamine receptor binding, membranes (D-179, RBI/Sigma) are diluted into binding buffer (75 mM Tris pH 7.4, 12.5 mM MgCl2 and 2 mM EDTA). For example, 10 µl of membranes are diluted in 500 µl of binding buffer (i.e., 1:50 dilution), which is aliquoted into labelled tubes. Cold competitor or test competitor is added, (e.g., 5 µl of 100x stock solution; 5 µl of 1 mM haloperidol solution (H-100, RBI/Sigma in DMSO). Radioligand is then added (^3H-Spiperone, TRK 818, Amersham, 250 µCi in 250 µl, 10.5 µM at 95 Ci/mmol). For competition studies, 0.5 nM is used. A 100x stock (i.e., 50 nM) is made by diluting the commercial stock 1:210 in binding buffer, and 5 µl is added to every tube. Control tubes have radioligand but no membranes. The mixtures are vortexed, then spun very briefly. The mixtures are then incubated for 1 hour at 27°C in a water bath. The mixture is filtered through GF/C filters over a vacuum. Each filter is pre-soaked in polyethyleneimine (0.3% in water; add 1 ml of 10% stock (P-261; RBI/Sigma) to 33 ml of MilliQ water). The tubes are washed with 2-3 ml of wash buffer (50 mM Tris pH 7.4) and the wash filtered. The filters are then rinsed with 3 × 5 ml of wash buffer, air dried, placed in a scintillation vial and 4.5 ml of scintillant added. The activity on the filter is then determined.

[3] = tested on: MIP1α induced human monocyte migration; assay: Migration of freshly prepared peripheral blood monocytes, MIP1α; format: cell-based
Experimental: Agents may also be screened in a chemotactic assay which employs human neutrophils, eosinophils, mast cells, basophils, platelets, lymphocytes or monocytes. For monocytes, 9 mls of fresh blood are transferred to a tube containing 1 ml of 3.8% sodium citrate, and left at room temperature for 15 minutes. Five mls of this anti-coagulated blood are carefully layered over 3.5 ml Polymorphprep® (Nycomed Pharma, Oslo), and centrifuged at 500 g for 35 minutes per the manufacturer's instructions. The top band at the sample/medium interface contains monocytes. The monocytes are carefully removed with a glass pipette, and reconstituted to the original volume (5 ml). The cells are washed with PBS plus 10% fetal calf serum, and centrifuged at 400 g for 10 minutes. The washing step is repeated three times before the cells are counted. Cells are resuspended at 1 × 10^7 cells/ml in RPMI-1640 + 10% fetal calf serum (FCS). The monocytes are cultured for two days at 37°C in a humidified atmosphere of 5% CO2-
On day 2, the cells are counted, spun down, and reconstituted to 1 × 10^7 cells/ml in Gey's balanced salt solution + 1 mg/ml bovine serum albumin (BSA). […]

Row | Compound | hematology and serum chemistry (in words) ([1]; 50 mg/kg i.v.) | period with detectable drug levels in serum after treatment ([1]; 50 mg/kg i.v.) [h] | antigen specific antibody in recall responses of splenocytes, lymph node cells and PBL (in words) ([1]; single i.v. dose 50 mg/kg) | T cell-dependent antibody response (in words) [2] | stability against enzymatic destruction (in words) (trypsin) | ED50 for competition of spiperone binding to short splice variant D2 dopamine receptor (D2s dopamine receptors) [µM] | % inhibition at 100 µM versus MIP1α [3]
1 | CC[C@@H](C)[C@H]1NC(=O)[C@@H](CCC(N)=O)NC(=O)[C@H](N)CSSC[C@H](C(N)=O)NC(=O)[C@@H](CC(C)C)NC(=O)[C@@H](CC(=O)O)NC(=O)[C@H]2CCCN2C(=O)[C@@H](CCCCN)NC(=O)[C@@H](CCC(N)=O)NC(=O)[C@@H](CCCCN)NC(=O)[C@@H](Cc2c[nH]c3ccccc23)NC1=O (H-[dC][dQ][dI][dW][dK][dQ][dK][dP][dD][dL][dC]-NH2; disulfide 1-11) | No clinically significant changes | 4 | lowest detectable levels of antigen specific antibody | prevented | stable | >100 | 
2 | CC[C@H](C)[C@H](NC(=O)[C@H](C)NC(=O)[C@H](CC(=O)O)NC(=O)[C@@H]1CCCN1C(=O)[C@H](CCC(N)=O)NC(=O)[C@H](C)N)C(=O)N[C@@H](CC(N)=O)C(=O)N[C@@H](C)C(=O)N1CCC[C@H]1C(=O)N[C@H](C(=O)N[C@H](C(=O)N[C@@H](CS)C(=O)N[C@@H](CS)C(=O)O)[C@@H](C)O)C(C)C [Peptide 1] (H-AQPDAINAPVTCC-OH; N-terminus and C-terminus assumed) |  |  |  |  |  |  | n.s.
